21 compounds from ChEMBL document CHEMBL3045636, “Synthesis, characterization, in vitro anticancer activity, and docking of Schiff bases of 4-amino-1,2-naphthoquinone” (Med Chem Res, 2013) can be followed below.

What all share (type): functional, cell-based
In assay [1] the test system is MG-63. The assay is described as follows: Cytotoxicity against Homo sapiens (human) MG63 cells assessed as reduction of cell survival after 48 hr by MTT assay. The settings on record: MG-63, 48 h. (In general: Tetrazolium assays rely on reduction of a dye to a coloured formazan, in cell work by metabolically active cells.)
The subject of assay [2] is MCF7. The assay is described as follows: Cytotoxicity against Homo sapiens (human) MCF7 cells assessed as reduction of cell survival after 48 hr by MTT assay. The settings on record: MCF7, 48 h.
Assay [3] has as its system HepG2. In words: Cytotoxicity against Homo sapiens (human) HepG2 cells assessed as reduction of cell survival after 48 hr by MTT assay. As to conditions: HepG2, 48 h.
Assay [4] deals with MG-63. The assay is described as follows: Cytotoxicity against Homo sapiens (human) MG63 cells assessed as morphological changes at 10 uM after 48 hr by phase contrast microscopic analysis relative to untreated control.
For assay [5], the system named is HepG2. The assay is described as follows: Cytotoxicity against Homo sapiens (human) HepG2 cells assessed as morphological changes at 10 uM after 48 hr by phase contrast microscopic analysis relative to untreated control.
In assay [6] the test system is MCF7. The assay is described as follows: Cytotoxicity against Homo sapiens (human) MCF7 cells assessed as morphological changes at 10 uM after 48 hr by phase contrast microscopic analysis relative to untreated control.

Structures are written as SMILES. The source made the active and inactive calls. The rule behind the calls is not given here. A value given as a limit tells only on which side of the number the result lay.

For orientation: IC50 means the concentration that gives 50% inhibition. On to `O=C1C=C(/N=C\c2cccc(Br)c2)c2ccccc2C1=O`, for which the IC50 in assay [1] was 17.3 µM; in assay [2] it was 14.6 µM; in assay [3], 12.2 µM.

Regarding `O=C1C=CC(=O)c2ccccc21` [NAPHTHOQUINONE], the values for the IC50 in assay [1], in assay [2] and in assay [3] were > 25 µM, 16.9 µM and 15.9 µM, respectively.

As to `O=C1C=C(/N=C\c2c[nH]c3ccccc23)c2ccccc2C1=O`, the IC50 in assay [1] is 13.8 µM; in assay [2], 11.3 µM; in assay [3], 10.1 µM.

Turning to `O=C1C=C(/N=C\c2ccccc2O)c2ccccc2C1=O`, the results for the 50% inhibitory concentration (IC50) in assay [1], in assay [2] and in assay [3] were 16.1 µM, 13.2 µM and 11 µM, respectively.

Consider `O=C1C=C(/N=C\c2ccc(O)cc2)c2ccccc2C1=O`, for which the half-inhibitory concentration (IC50) in assay [1] is 13.6 µM; in assay [2], 11.1 µM; in assay [3], 8.92 µM.

With `O=C1C=C(/N=C\c2ccc([N+](=O)[O-])cc2)c2ccccc2C1=O`, the 50% inhibitory concentration (IC50) was 25 µM in assay [1], 14.7 µM in assay [2] and 15.6 µM in assay [3].

On to `COc1ccc(/C=N\C2=CC(=O)C(=O)c3ccccc32)cc1`, for which the IC50 in assay [1] was determined as 12.7 µM; in assay [2], 11.2 µM; in assay [3], 9.03 µM.

For the compound `O=C1C=C(/N=C\C=C\c2ccccc2)c2ccccc2C1=O`, the IC50 in assay [1] worked out at 14.8 µM; in assay [2] it was 12.9 µM; in assay [3] it was 10.6 µM.

For the compound `COc1cccc2c1C(=O)c1c(O)c3c(c(O)c1C2=O)C[C@@](O)(C(=O)CO)C[C@@H]3O[C@H]1C[C@H](N)[C@H](O)[C@H](C)O1` [DOXORUBICIN], the IC50 in assay [1] came out at 3.17 µM; in assay [2], 2.67 µM; in assay [3], 1.69 µM.

Take `O=C1C=C(N=C2CCCCC2)c2ccccc2C1=O`: the IC50 in assay [1] worked out at 11.5 µM; in assay [2], 9.3 µM; in assay [3], 7.37 µM.

For the compound `COc1cc(/C=N\C2=CC(=O)C(=O)c3ccccc32)ccc1O`, the figures for the IC50 in assay [1], in assay [2] and in assay [3] were 9.98 µM, 8.24 µM and 6.37 µM, respectively.

For `O=C1C=C(/N=C\c2ccc(Cl)cc2Cl)c2ccccc2C1=O`, the half-maximal inhibitory concentration (IC50) came out at 24.3 µM in assay [1], 14.7 µM in assay [2] and 15.7 µM in assay [3].

For the compound `CN(C)c1ccc(/C=N\C2=CC(=O)C(=O)c3ccccc32)cc1`, the figures for the IC50 in assay [1], in assay [2] and in assay [3] were 12.9 µM, 10.6 µM and 7.72 µM, respectively.

Regarding `O=C1C=C(N=C2CCCC2)c2ccccc2C1=O`, the half-maximal inhibitory concentration (IC50) in assay [1] is 11.9 µM; in assay [2], 9.64 µM; in assay [3], 7.77 µM.

Regarding `O=C1C=C(/N=C\c2ccccc2)c2ccccc2C1=O`, the IC50 was found to be 16.2 µM in assay [1], 13.8 µM in assay [2] and 11.5 µM in assay [3].

`O=C1C=C(/N=C\c2ccccc2[N+](=O)[O-])c2ccccc2C1=O`: the values for the half-inhibitory concentration (IC50) in assay [1], in assay [2] and in assay [3] were 17 µM, 14.4 µM and 11.8 µM, respectively.

Turning to `O=C1C=C(/N=C\c2ccccc2Cl)c2ccccc2C1=O`, the results for the IC50 in assay [1], in assay [2] and in assay [3] were 17.1 µM, 14.3 µM and 12.1 µM, respectively.

On to `NC1=CC(=O)C(=O)c2ccccc21` [4-AMINO-[1,2]NAPHTHOQUINONE], for which the IC50 in assay [1] turned out to be 24.6 µM; in assay [2] it was 14.8 µM; in assay [3], 15.7 µM.

On to `COc1cc(/C=N\C2=CC(=O)C(=O)c3ccccc32)cc(OC)c1OC`, for which the result in assay [4], in assay [5] and in assay [6] was Active. Moreover, the IC50 worked out at 9.69 µM in assay [1], 7.65 µM in assay [2] and 5.91 µM in assay [3].

Consider `Cc1ccc(/C=N\C2=CC(=O)C(=O)c3ccccc32)cc1`, for which the IC50 came out at 15.1 µM in assay [1], 12.6 µM in assay [2] and 10.4 µM in assay [3].

Take `COc1ccc(/C=N\C2=CC(=O)C(=O)c3ccccc32)cc1OC`: the half-maximal inhibitory concentration (IC50) in assay [1] is 13.3 µM; in assay [2], 10.9 µM; in assay [3], 9.15 µM.
